“And” between values parts separate entries of the source, which are not always exact repeats. Equal entries are not always repeated.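 Five compound concentrations were applied to cells in 96-well plates for 48 hours; endpoints were derived by simple linear interpolation of the resulting dose-response curve. GI50: concentration for 50% inhibition of growth. TGI: total growth inhibition.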
Experiments:
Assay in all cases: inhibition of tumour cell growth, NCI panel, 48 h
786-0 renal = system: 786-0 renal
A498 renal = system: A498 renal
A549 NSCLC = system: A549 NSCLC
ACHN renal = system: ACHN renal
CAKI-1 renal = system: CAKI-1 renal
CCRF-CEM leukemia = system: CCRF-CEM leukemia
DLD-1 colon = system: DLD-1 colon
DMS 114 small cell lung = system: DMS 114 small cell lung
DMS 273 small cell lung = system: DMS 273 small cell lung
EKVX NSCLC = system: EKVX NSCLC
HCC-2998 colon = system: HCC-2998 colon
HCT-116 colon = system: HCT-116 colon
HCT-15 colon = system: HCT-15 colon
HL-60(TB) leukemia = system: HL-60(TB) leukemia
HOP-18 NSCLC = system: HOP-18 NSCLC
HOP-62 NSCLC = system: HOP-62 NSCLC
HOP-92 NSCLC = system: HOP-92 NSCLC
HT29 colon = system: HT29 colon
IGROV1 ovarian = system: IGROV1 ovarian
K-562 leukemia = system: K-562 leukemia
KM12 colon = system: KM12 colon
KM20L2 colon = system: KM20L2 colon
LOX IMVI melanoma = system: LOX IMVI melanoma
LXFL 529 NSCLC = system: LXFL 529 NSCLC
M14 melanoma = system: M14 melanoma
M19-MEL melanoma = system: M19-MEL melanoma
MALME-3M melanoma = system: MALME-3M melanoma
MOLT-4 leukemia = system: MOLT-4 leukemia
NCI-H226 lung = system: NCI-H226 lung
NCI-H23 lung = system: NCI-H23 lung
NCI-H460 lung = system: NCI-H460 lung
NCI-H522 lung = system: NCI-H522 lung
OVCAR-3 ovarian = system: OVCAR-3 ovarian
OVCAR-4 ovarian = system: OVCAR-4 ovarian
OVCAR-5 ovarian = system: OVCAR-5 ovarian
OVCAR-8 ovarian = system: OVCAR-8 ovarian
RPMI-8226 leukemia = system: RPMI-8226 leukemia
RXF 393 renal = system: RXF 393 renal
SF-268 CNS = system: SF-268 CNS
SF-295 CNS = system: SF-295 CNS
SF-539 CNS = system: SF-539 CNS
SK-MEL-2 melanoma = system: SK-MEL-2 melanoma
SK-MEL-28 melanoma = system: SK-MEL-28 melanoma
SK-MEL-5 melanoma = system: SK-MEL-5 melanoma
SK-OV-3 ovarian = system: SK-OV-3 ovarian
SN12C renal = system: SN12C renal
SNB-19 CNS = system: SNB-19 CNS
SNB-75 CNS = system: SNB-75 CNS
SNB-78 CNS = system: SNB-78 CNS
SR leukemia = system: SR leukemia
SW-620 colon = system: SW-620 colon
TK-10 renal = system: TK-10 renal
U251 CNS = system: U251 CNS
UACC-257 melanoma = system: UACC-257 melanoma
UACC-62 melanoma = system: UACC-62 melanoma
UO-31 renal = system: UO-31 renal
XF 498 CNS = system: XF 498 CNS
COLO 205 colon = system: COLO 205 colon

## COc1cc2c[n+](C)c3c4cc(OC)c(OC)cc4c(OCCCCCCCCOc4cc5c6cc(OC)c(OC)cc6c[n+](C)c5c5cc(OC)c(OC)cc45)cc3c2cc1OC
786-0 renal
  TGI: > 100 µM
A498 renal
  TGI: > 100 µM
A549 NSCLC
  TGI: > 100 µM
ACHN renal
  TGI: > 100 µM
CAKI-1 renal
  TGI: > 100 µM
CCRF-CEM leukemia
  TGI: > 100 µM
DLD-1 colon
  TGI: > 100 µM
DMS 114 small cell lung
  TGI: > 100 µM
DMS 273 small cell lung
  TGI: > 100 µM
EKVX NSCLC
  TGI: > 100 µM
HCC-2998 colon
  TGI: > 100 µM
HCT-116 colon
  TGI: > 100 µM
HCT-15 colon
  TGI: > 100 µM
HL-60(TB) leukemia
  TGI: > 100 µM
HOP-18 NSCLC
  TGI: > 100 µM
HOP-62 NSCLC
  TGI: > 100 µM
HOP-92 NSCLC
  TGI: > 100 µM
HT29 colon
  TGI: > 100 µM
IGROV1 ovarian
  TGI: > 100 µM
K-562 leukemia
  TGI: > 100 µM
KM12 colon
  TGI: > 100 µM
KM20L2 colon
  TGI: > 100 µM
LOX IMVI melanoma
  TGI: > 100 µM
LXFL 529 NSCLC
  TGI: > 100 µM
M14 melanoma
  TGI: > 100 µM
M19-MEL melanoma
  TGI: > 100 µM
MALME-3M melanoma
  TGI: > 100 µM
MOLT-4 leukemia
  TGI: > 100 µM
NCI-H226 lung
  TGI: > 100 µM
NCI-H23 lung
  TGI: > 100 µM
NCI-H460 lung
  TGI: > 100 µM
NCI-H522 lung
  TGI: > 100 µM
OVCAR-3 ovarian
  TGI: > 100 µM
OVCAR-4 ovarian
  TGI: > 100 µM
OVCAR-5 ovarian
  TGI: > 100 µM
OVCAR-8 ovarian
  TGI: > 100 µM
RPMI-8226 leukemia
  TGI: > 100 µM
RXF 393 renal
  TGI: > 100 µM
SF-268 CNS
  TGI: > 100 µM
SF-295 CNS
  TGI: > 100 µM
SF-539 CNS
  TGI: > 100 µM
SK-MEL-2 melanoma
  TGI: > 100 µM
SK-MEL-28 melanoma
  TGI: > 100 µM
SK-MEL-5 melanoma
  TGI: > 100 µM
SK-OV-3 ovarian
  TGI: > 100 µM
SN12C renal
  TGI: > 100 µM
SNB-19 CNS
  TGI: 66.3 µM
SNB-75 CNS
  TGI: > 100 µM
SNB-78 CNS
  TGI: > 100 µM
SR leukemia
  TGI: > 100 µM
SW-620 colon
  TGI: > 100 µM
TK-10 renal
  TGI: > 100 µM
U251 CNS
  TGI: > 100 µM
UACC-257 melanoma
  TGI: > 100 µM
UACC-62 melanoma
  TGI: > 100 µM
UO-31 renal
  TGI: > 100 µM
XF 498 CNS
  TGI: > 100 µM

## COc1cc2c(c(OC)c1OC)-c1ccc(SC)c(=O)cc1C(CC(=O)Oc1ccc(F)cc1)C2 (centres undefined)
786-0 renal
  GI50: 0.325 µM
  TGI: 75 µM and > 100 µM
A498 renal
  GI50: 0.0432 µM
A549 NSCLC
  GI50: 0.391 µM
ACHN renal
  GI50: 0.587 µM
  TGI: 75 µM and > 100 µM
CAKI-1 renal
  GI50: 1.9 µM
  TGI: 10 µM and > 100 µM
CCRF-CEM leukemia
  GI50: 0.367 µM
  TGI: 27.5 µM and > 100 µM
COLO 205 colon
  GI50: 0.307 µM
  TGI: 0.305 µM and 1.03 µM
DLD-1 colon
  TGI: 75 µM and 10.1 µM
DMS 114 small cell lung
  GI50: 0.0325 µM
DMS 273 small cell lung
  GI50: 0.262 µM
EKVX NSCLC
  GI50: 0.981 µM
  TGI: 75 µM and > 100 µM
HCC-2998 colon
  GI50: 0.161 µM
  TGI: 0.325 µM and 0.46 µM
HCT-116 colon
  GI50: 0.323 µM
  TGI: 0.306 µM and 1.08 µM
HCT-15 colon
  GI50: 0.384 µM
  TGI: 0.989 µM and 2.86 µM
HL-60(TB) leukemia
  TGI: 0.768 µM
HOP-18 NSCLC
  GI50: > 100 µM
  TGI: 75 µM and > 100 µM
HOP-62 NSCLC
  GI50: 0.41 µM
  TGI: 54.6 µM and 49.6 µM
HOP-92 NSCLC
  GI50: 1.91 µM
  TGI: 75 µM and 97.7 µM
HT29 colon
  GI50: 0.258 µM
  TGI: 0.392 µM and 0.675 µM
IGROV1 ovarian
  GI50: 0.293 µM
  TGI: 75 µM and > 100 µM
K-562 leukemia
  GI50: 0.351 µM
  TGI: 75 µM and > 100 µM
KM12 colon
  TGI: 2.37 µM
KM20L2 colon
  GI50: 0.189 µM
  TGI: 0.239 µM and 0.363 µM
LOX IMVI melanoma
  GI50: 0.392 µM
  TGI: 8.26 µM and 10.8 µM
LXFL 529 NSCLC
  GI50: 0.507 µM
M14 melanoma
  TGI: 14.4 µM
M19-MEL melanoma
  GI50: 0.338 µM
  TGI: 14.1 µM and 23.1 µM
MALME-3M melanoma
  TGI: 75 µM and > 100 µM
MOLT-4 leukemia
  GI50: 0.518 µM
  TGI: 27.7 µM and > 100 µM
NCI-H226 lung
  GI50: 0.201 µM
  TGI: 0.612 µM and 0.677 µM
NCI-H23 lung
  GI50: 0.287 µM
  TGI: 0.667 µM and 1.04 µM
NCI-H460 lung
  GI50: 0.346 µM
  TGI: 1.83 µM and 1.14 µM
NCI-H522 lung
  GI50: 0.217 µM
  TGI: 0.31 µM and 0.61 µM
OVCAR-3 ovarian
  TGI: 0.608 µM
OVCAR-4 ovarian
  GI50: 5.4 µM
  TGI: 75 µM and > 100 µM
OVCAR-5 ovarian
  GI50: 0.973 µM
  TGI: 75 µM and > 100 µM
OVCAR-8 ovarian
  GI50: 0.28 µM
RPMI-8226 leukemia
  TGI: 12.2 µM and 11 µM
RXF 393 renal
  GI50: 0.0426 µM
SF-268 CNS
  GI50: 0.461 µM
  TGI: 75 µM and 15 µM
SF-295 CNS
  GI50: 0.286 µM
  TGI: 75 µM and > 100 µM
SF-539 CNS
  TGI: 0.656 µM
SK-MEL-2 melanoma
  GI50: 0.449 µM
  TGI: 0.91 µM and 4.17 µM
SK-MEL-28 melanoma
  TGI: > 100 µM
SK-MEL-5 melanoma
  GI50: 0.293 µM
  TGI: 1.1 µM and 3.38 µM
SK-OV-3 ovarian
  GI50: 0.04 µM
  TGI: 24.9 µM and 11.6 µM
SN12C renal
  TGI: 20.2 µM and 7.79 µM
SNB-19 CNS
  GI50: 0.96 µM
  TGI: 75 µM and > 100 µM
SNB-78 CNS
  GI50: 0.0891 µM
  TGI: 75 µM and 73.6 µM
SR leukemia
  GI50: 0.124 µM
  TGI: 3.14 µM and 24 µM
SW-620 colon
  GI50: 0.358 µM
  TGI: 11.1 µM and > 100 µM
TK-10 renal
  GI50: 21.5 µM
  TGI: 75 µM and > 100 µM
U251 CNS
  GI50: 0.41 µM
  TGI: 1.41 µM and 2.35 µM
UACC-257 melanoma
  GI50: 0.264 µM
  TGI: 75 µM and > 100 µM
UACC-62 melanoma
  GI50: 0.0509 µM
  TGI: 0.73 µM and 0.539 µM
UO-31 renal
  GI50: 2.49 µM
  TGI: 75 µM and > 100 µM
XF 498 CNS
  GI50: 0.442 µM
  TGI: 7.03 µM and 5.13 µM

Source: PubChem BioAssay (NCI)
